Results on 16 molecules are retold here after PubChem BioAssay (NCI).

What all share (assay): NCI anticancer screen, dose series, 48 h
Assay [1] has as its system SK-OV-3 ovarian.
Assay [2] deals with HOP-62 NSCLC.
For assay [3], the system named is 786-0 renal.
Assay [4] relates to SR leukemia.
Assay [5] relates to NCI-H23 lung.
The subject of assay [6] is UACC-257 melanoma.
Assay [7] deals with BT-549 breast.
Assay [8] relates to T-47D breast.
For assay [9], the system named is SK-MEL-28 melanoma.
For assay [10], the system named is UACC-62 melanoma.

Molecules are shown by their SMILES. “And” between values parts separate entries of the source, which are not always exact repeats. Identical values can stand only once.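 96-well plates; 48 h exposure; 5 concentrations. Endpoints by linear interpolation between flanking doses. Not reached: highest tested concentration assigned. GI50 = concentration required for 50% inhibition of growth. TGI: concentration producing complete growth inhibition.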

As to `FC(F)(F)c1ccc2nc(-c3nc(-c4ccccc4)n4ccccc34)[nH]c2c1`, the GI50 was 1.86 µM in assay [1]; 2.46 µM in assay [2]; 1.92 µM in [3]; 3.65 µM in assay [4]; 3.21 µM in [5]; 13.1 µM in [6]. The GI50 in assay [7] was 4.23 µM; in assay [8], 1.71 µM; in assay [9], 9.22 µM; in assay [10] it was 3.19 µM. The TGI in [1] is 3.53 µM; in assay [2], 9.26 µM; in assay [3] it was 3.56 µM; in assay [4] it was greater than 100 µM; in assay [5], 14.7 µM; in assay [6], 46.2 µM. In addition, the TGI stood at 63.4 µM in assay [7], 16.9 µM in assay [8], 31.6 µM in [9] and 17.9 µM in assay [10].

On to `O=C(Nc1ccc(Cl)c(Cl)c1)Nc1ccc(Cl)c([N+](=O)[O-])c1`, for which the GI50 in assay [1] was 2.01 µM; in assay [2] it was 2.06 µM; in assay [3], 1.49 µM; in assay [4], 2.58 µM; in assay [5], 0.698 µM; in assay [6] it was 2.85 µM. Further, the GI50 was 1.87 µM in [7], 0.729 µM in assay [8], 1.3 µM in [9] and 1.13 µM in [10]. Also, the TGI in assay [1] is 5.89 µM; in assay [2], 6.04 µM; in assay [3], 5.21 µM; in [4] it was greater than 25 µM; in assay [5], 2.69 µM; in assay [6], 7.15 µM. Besides, the TGI is 5.33 µM in assay [7], 2.83 µM in assay [8], 4.62 µM in assay [9] and 4.15 µM in [10].

For `COc1ccc(C(=O)/C=C/c2ccc(Cl)cc2)cc1S(N)(=O)=O`, the GI50 in assay [1] was 5.96 µM; in assay [2] it was 2.51 µM; in [3], 1.74 µM; in assay [4] it was 0.865 µM; in [5], 2.54 µM; in assay [6], 12.2 µM. Further, the GI50 was 2.29 µM in assay [7], 3.2 µM in assay [8], 3.24 µM in [9] and 4.88 µM in [10]. Moreover, the TGI stood at 18.6 µM in assay [1]; 8.62 µM in assay [2]; 3.69 µM in assay [3]; 6.86 µM in assay [4]; 7.06 µM in assay [5]; 24.9 µM in assay [6]. Moreover, the TGI in [7] stood at 7.33 µM; in assay [8], 14.4 µM; in [9] it was 12.7 µM; in assay [10], 17.5 µM.

In the case of `C1=C[C@@H]2c3ccc4cnccc4c3NC[C@@H]2C1`, the TGI in assay [1], in assay [2], in assay [3], in assay [4], in assay [5] and in [6] was greater than 100 µM in each case. The TGI in [7], in assay [8], in assay [9] and in [10] was greater than 100 µM throughout.

Turning to `O=C1CCC/C=C\C[C@H]2C=C(Cl)C(=O)/C2=C/C[C@H](CCCCC(F)(F)F)OC(=O)CCC/C=C\C[C@H]2C=C(Cl)C(=O)/C2=C/C[C@H](CCCCC(F)(F)F)O1`, the GI50 was 1.72 µM in assay [1]; 0.274 µM in assay [2]; 0.18 µM in assay [3]; 0.198 µM in assay [4]; 0.236 µM in assay [5]; 0.685 µM in assay [6]. The GI50 in assay [7] was 0.183 µM; in [8], 0.204 µM; in assay [9] it was 0.166 µM; in [10], 0.149 µM. The TGI in [1] was 5.17 µM; in [2], 1.46 µM; in assay [3], 0.475 µM; in assay [4], 0.748 µM; in [5] it was 0.868 µM; in assay [6], 2.3 µM. In addition, the TGI in [7] came out at 0.502 µM; in [8], 1.16 µM; in [9] it was 0.419 µM; in assay [10], 0.352 µM.

As to `COc1c(O)c2ccccc2c2cc(O)ccc12`, the TGI in assay [1] was 55 µM; in assay [2] it was 31.3 µM; in [3], 25.1 µM; in [4] it was greater than 68.4 µM; in [5], 10.6 µM; in assay [6], 5.24 µM. Besides, the TGI in assay [7] is 7.04 µM; in assay [8], 38.4 µM; in assay [9], 11.9 µM; in assay [10] it was 6.1 µM.

For the molecule `COc1ccc(CCNc2nc3ccccc3c3[nH]c4ccccc4c23)cc1OC`, the GI50 in [1] was 19.9 µM; in [2], 10.9 µM; in assay [3], 1.7 µM; in assay [4], 2.32 µM; in assay [5], 10.4 µM; in assay [6] it was 1.99 µM. In addition, the GI50 in [7] is 12.1 µM; in [8], 15.3 µM; in [9], 1.71 µM; in assay [10], 13 µM. For the same molecule, the TGI in assay [1] is 34.6 µM; in [2], 24.4 µM; in assay [3], 3.28 µM; in [4], 7.93 µM; in assay [5], 24.6 µM; in [6] it was 3.8 µM. In addition, the TGI is 26.3 µM in [7], 34.2 µM in [8], 3.21 µM in [9] and 26.6 µM in assay [10].

With `Nc1nc2nc3c(nc2c(=O)[nH]1)CN(c1ccc(C(=O)O)cc1)C3=O`, the TGI in [1] was greater than 100 µM; in assay [2] it was 83.7 µM; in assay [3], greater than 100 µM; in [4] it was greater than 100 µM; in assay [5] it was greater than 100 µM; in assay [6], greater than 100 µM. Besides, the TGI in assay [7], in assay [8], in assay [9] and in assay [10] was greater than 100 µM throughout.

For `COc1ccc(NC(=O)c2ccc(NC3=C(Cl)C(=O)N(Cc4ccccc4)C3=O)cc2)cc1`, the GI50 was 18.4 µM in [1]; 17.1 µM in assay [2]; 2.89 µM in assay [3]; 0.766 µM in assay [4]; 8.38 µM in assay [5]; 9.14 µM in [6]. Besides, the GI50 in [7] was 8.27 µM; in assay [8] it was 9.79 µM; in [9] it was 10.1 µM; in [10], 16.3 µM. The TGI in [1] was found to be 36.2 µM; in assay [2] it was 32.6 µM; in [3], 7.97 µM; in assay [4] it was 3.61 µM; in assay [5], 30 µM; in [6], 24.8 µM. In addition, the TGI turned out to be 26.2 µM in assay [7], 77.5 µM in assay [8], 31.6 µM in assay [9] and 36.8 µM in assay [10].

Consider `Cn1cc(-c2ccc3cc(-c4ccc(CC(=O)Nc5cc(C(C)(C)C)nn5C)cc4)cnc3c2)cn1`, for which the GI50 in assay [1] was 0.109 µM; in assay [2] it was 0.409 µM; in [3], 0.351 µM; in assay [4], 0.256 µM; in [5], 0.407 µM; in assay [6], 0.425 µM. In addition, the GI50 in assay [7] was 0.262 µM; in [8], 0.209 µM; in [9], 0.41 µM; in [10], 0.179 µM. The TGI in assay [1], in assay [2], in assay [3], in [4], in assay [5] and in [6] was greater than 100 µM throughout. Besides, the TGI is 2.38 µM in assay [7], 4.81 µM in assay [8], greater than 100 µM in [9] and greater than 100 µM in assay [10].

Take `COc1ccc(C(=O)CC2(O)C(=O)Nc3c(Cl)ccc(Cl)c32)cc1` (configuration not stated): the GI50 was 2.89 µM in [1]; 3.42 µM in [2]; 6.42 µM in assay [3]; 0.413 µM in [4]; 4.61 µM in [5]; 15.5 µM in assay [6]. The GI50 in [7] was 2.43 µM; in assay [8], 9.9 µM; in assay [9], 6.22 µM; in [10] it was 0.791 µM. The TGI in assay [1] is greater than 100 µM; in assay [2] it was greater than 100 µM; in assay [3], greater than 100 µM; in [4], 56.1 µM; in [5], greater than 60.6 µM; in [6] it was greater than 100 µM. The TGI in assay [7] is greater than 70.9 µM; in [8] it was greater than 100 µM; in [9], greater than 100 µM; in assay [10], greater than 100 µM.

Turning to `COc1cc([C@@H]2c3cc4c(cc3[C@H](OC3OC5COC(c6ccccc6)OC5C(O)C3O)[C@H]3COC(=O)[C@H]23)OCO4)cc(OC)c1OC` (some centres not stated), the GI50 in [1] is 0.441 µM; in assay [2], 0.456 µM; in assay [3], 0.594 µM; in assay [4] it was 0.31 µM; in [5], 0.418 µM; in assay [6] it was 1.07 µM. The GI50 is 0.333 µM in assay [7], 1.73 µM in [8], 0.71 µM in [9] and 0.515 µM in assay [10]. Further, the TGI is 18.5 µM in [1]; 5.32 µM in assay [2]; 19.6 µM in assay [3]; greater than 100 µM in assay [4]; 14.5 µM in assay [5]; 3.69 µM in assay [6]. Besides, the TGI is 1.99 µM in assay [7], 5.87 µM in assay [8], 3.06 µM in [9] and 22.1 µM in assay [10].

Turning to `COC1CC(OC2OC(CO)C(O)C(O)C2O)/C(=C\C#N)C(O)C1OC` (configuration not stated), the TGI in assay [1], in assay [2], in assay [3], in assay [4], in [5] and in assay [6] was greater than 100 µM throughout. The TGI in assay [7], in [8], in assay [9] and in [10] was greater than 100 µM each time.

As for `O=C(Nc1ccc(Cl)cc1)NS(=O)(=O)c1ccc2c(c1)CCC2`, the GI50 in [1] was 18 µg/mL; in [3] it was 21.1 µg/mL; in assay [4] it was 19.3 µg/mL; in assay [5] it was 15.6 µg/mL; in assay [6], 27.8 µg/mL; in assay [9], 20.1 µg/mL. Also, the GI50 in assay [10] was 15.9 µg/mL. In addition, the TGI in [1] is 86.1 µM and 41.9 µg/mL; in assay [2], greater than 100 µM; in [3], > 100 µM and 40.5 µg/mL; in assay [4], > 100 µM and 91.6 µg/mL; in assay [5], > 56 µM and 36.3 µg/mL; in assay [6] it was > 100 µM and 80.6 µg/mL. Also, the TGI is greater than 100 µM in assay [7]; 74.6 µM in assay [8]; > 100 µM and 39.3 µg/mL in [9]; > 84.7 µM and 36.7 µg/mL in assay [10].

For the molecule `CC(C)(O)Cn1c(=O)c(Oc2ccc(F)cc2F)cc2cnc(NC3CCOCC3)nc21`, the GI50 in assay [1], in assay [2], in [3], in [4], in [5] and in assay [6] was greater than 25 µM each time. For the same molecule, the GI50 in assay [7], in [8], in assay [9] and in assay [10] was greater than 25 µM each time. For the same molecule, the TGI in [1], in assay [2], in [3], in assay [4], in assay [5] and in assay [6] was greater than 25 µM throughout. In addition, the TGI in assay [7], in assay [8], in [9] and in [10] was greater than 25 µM throughout.

With `COc1ccc(C(=O)c2cc3c(N)c(C(=O)Nc4cccc(Cl)c4)sc3nc2C)cc1`, the GI50 is 1.58 µM in assay [1]; 2.24 µM in assay [2]; 2.67 µM in [3]; 1.15 µM in assay [4]; 2.53 µM in assay [5]; 30.7 µM in [6]. Moreover, the GI50 was 7.69 µM in assay [7], 2.52 µM in assay [8], 3.03 µM in assay [9] and 1.12 µM in assay [10]. The TGI in assay [1], in assay [2], in [3], in [4], in [5] and in assay [6] was greater than 33.3 µM in each case. The TGI in [7], in assay [8], in assay [9] and in assay [10] was greater than 33.3 µM in each case.
